From ChEMBL document CHEMBL3045394, “Synthesis and antiinflammatory activity of certain benzothieno[3,2-d][1,2,4]triazolo[4,3-b] pyridazine derivatives” (2012) come the findings set out here.

The experiment concerns Rattus norvegicus. The experiment is described as follows: Anti-inflammatory activity inRattus norvegicus albino (rat) assessed as inhibition of carageenaan-induced paw edema at 10 mg/kg, po administered 1 hr prior to carrageenan-challenge measured after 4 hr relative to control.
As to `Oc1nn2cnnc2c2c1sc1c(Br)cccc12`, the inhibition in vivo at 10 mg/kg is 9.7%.
In the case of `COc1ccccc1-c1nnc2c3c(sc4c(Br)cccc43)c(N3CCCCC3)nn12` it was 8.4%; in that of `COc1ccccc1-c1nnc2c3c(sc4c(Br)cccc43)c(NN)nn12`, 78.7%.
As for `NNc1nn2cnnc2c2c1sc1c(Br)cccc12`, the inhibition in vivo at 10 mg/kg is 52.8%.
`COc1ccc2c(c1)c(CC(=O)O)c(C)n2C(=O)c1ccc(Cl)cc1` [INDOMETHACIN]: the inhibition in vivo at 10 mg/kg is 50.5%.

Broadly, the inhibition in vivo is the share of the control response that was lost under treatment.
